{
  "source": "patent US7410975B2",
  "about": "“Small molecule toll-like receptor (TLR) antagonists” (Coley Pharmaceutical Group, Inc., priority 2003, dated 2008)",
  "note": "Structures can show the parent of a compound that is named as a salt.",
  "data": [
    {"target": "T1, human TLR9 (hTLR9) (Homo sapiens, UniProt Q9NR96)", "T1 construct": "expressed in transfected cells", "T1 sequence (Q9NR96 26-1032)": "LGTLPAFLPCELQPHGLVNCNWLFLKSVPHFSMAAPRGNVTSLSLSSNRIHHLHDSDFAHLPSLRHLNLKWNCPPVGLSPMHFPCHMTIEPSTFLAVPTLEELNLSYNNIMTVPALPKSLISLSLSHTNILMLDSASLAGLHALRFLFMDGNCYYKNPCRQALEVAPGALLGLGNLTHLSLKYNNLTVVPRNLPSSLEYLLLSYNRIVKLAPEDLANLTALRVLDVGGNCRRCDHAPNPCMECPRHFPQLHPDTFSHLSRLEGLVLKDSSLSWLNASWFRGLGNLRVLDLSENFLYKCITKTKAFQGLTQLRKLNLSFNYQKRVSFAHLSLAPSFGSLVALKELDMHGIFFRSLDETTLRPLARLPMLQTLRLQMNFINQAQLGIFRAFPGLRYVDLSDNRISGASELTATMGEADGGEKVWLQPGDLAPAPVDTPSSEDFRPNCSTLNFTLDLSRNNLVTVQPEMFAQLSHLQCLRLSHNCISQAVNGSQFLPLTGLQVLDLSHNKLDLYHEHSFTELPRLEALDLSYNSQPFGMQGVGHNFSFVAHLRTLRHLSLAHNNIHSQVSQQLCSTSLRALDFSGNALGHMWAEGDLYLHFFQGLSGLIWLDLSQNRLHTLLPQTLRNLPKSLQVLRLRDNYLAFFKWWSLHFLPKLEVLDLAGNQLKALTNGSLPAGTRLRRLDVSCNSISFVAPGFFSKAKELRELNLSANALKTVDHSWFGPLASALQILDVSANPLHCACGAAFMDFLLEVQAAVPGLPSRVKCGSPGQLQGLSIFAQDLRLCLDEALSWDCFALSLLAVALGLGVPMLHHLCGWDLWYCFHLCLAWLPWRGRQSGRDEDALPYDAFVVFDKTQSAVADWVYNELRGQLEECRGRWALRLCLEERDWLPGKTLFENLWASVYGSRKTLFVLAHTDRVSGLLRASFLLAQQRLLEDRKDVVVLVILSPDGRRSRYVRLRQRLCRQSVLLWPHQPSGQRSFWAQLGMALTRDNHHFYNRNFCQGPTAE", "test": "Antagonist screen, hTLR9-NFκB-293 cells, 6× NF-κB-luciferase reporter, with EC50 of CpG ODN 2006", "type": "cell-based", "details": "compound at 0.5, 5, 50 μg/ml; EC50 concentration of CpG ODN 2006; 16 h; NF-κB-luciferase", "outline": "(§1)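 Luciferase fold induction was compared with the ligand-alone baseline, and antagonism was scored by the lowest concentration giving clear down-regulation.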", "values": [
      {"smiles": "CN1CCc2cc3c(c4c2C1Cc1ccccc1-4)OCO3.Cl", "note": "(stereo not shown) [compound 669, Remerine hydrochloride]", "hTLR9 (inhibitory effect, antagonist score)": "— (compounds for which there was no clear down regulation even at 50 μg/ml)"},
      {"smiles": "COc1cc2nc(N3CCN(C(=O)C4COc5ccccc5O4)CC3)nc(N)c2cc1OC.CS(=O)(=O)O", "note": "(stereo not shown) [compound 858, Doxazosin mesylate]", "hTLR9 (inhibitory effect, antagonist score)": "13 (compounds for which there was clear down regulation at 0.5 μg/ml, 5 μg/ml, and 50 μg/ml)"},
      {"smiles": "CN1CCc2cccc3c2[C@H]1Cc1ccc(O)c(O)c1-3.Cl", "note": "[compound 101, Apomorphinehydrochloride (R, —)]", "hTLR9 (inhibitory effect, antagonist score)": "12 (compounds for which there was clear down regulation at 5 μg/ml and 50 μg/ml)"},
      {"smiles": "CN(C)C(=O)C(CCN1CCC(O)(c2ccc(Cl)cc2)CC1)(c1ccccc1)c1ccccc1", "note": "[compound 144, Loperamidehydrochloride]", "hTLR9 (inhibitory effect, antagonist score)": "12 (compounds for which there was clear down regulation at 5 μg/ml and 50 μg/ml)"},
      {"smiles": "CC(C)(C)c1ccc(C(O)CCCN2CCC(C(O)(c3ccccc3)c3ccccc3)CC2)cc1", "note": "(stereo not shown) [compound 138, Terfenadine]", "hTLR9 (inhibitory effect, antagonist score)": "12 (compounds for which there was clear down regulation at 5 μg/ml and 50 μg/ml)"},
      {"smiles": "CCN(CC)CCCNc1nc(-c2ccccc2)nc2ccccc12", "note": "[compound 2001]", "hTLR9 (inhibitory effect, antagonist score)": "13 (compounds for which there was clear down regulation at 0.5 μg/ml, 5 μg/ml, and 50 μg/ml)"},
      {"smiles": "COc1cc2c(cc1O)C[C@H]1c3c(cc(O)c(OC)c3-2)CCN1C", "note": "[compound 600, Boldine]", "hTLR9 (inhibitory effect, antagonist score)": "12 (compounds for which there was clear down regulation at 5 μg/ml and 50 μg/ml)"},
      {"smiles": "CCN(CC)CCCC(C)Nc1nc(/C=C/c2ccc(Cl)cc2)nc2cc3ccccc3cc12", "note": "(stereo not shown) [compound 2000]", "hTLR9 (inhibitory effect, antagonist score)": "13 (compounds for which there was clear down regulation at 0.5 μg/ml, 5 μg/ml, and 50 μg/ml)"},
      {"smiles": "COc1cc2nc(N3CCN(C(=O)C4CCCO4)CC3)nc(N)c2cc1OC.Cl", "note": "(stereo not shown) [compound 751, Terazosin hydrochloride]", "hTLR9 (inhibitory effect, antagonist score)": "13 (compounds for which there was clear down regulation at 0.5 μg/ml, 5 μg/ml, and 50 μg/ml)"}
    ]},
    {"target": "T1, human TLR9 (hTLR9)", "test": "Antagonist screen, hTLR9-NFκB-293 cells, 6× NF-κB-luciferase reporter, with EC50 of CpG ODN 2006", "type": "cell-based", "details": "hTLR9-NFκB-293 cells, with EC50 of CpG ODN 2006; compound at 0.5, 5 and 50 μg/ml", "outline": "as §1", "values": [
      {"smiles": "CC[N+](C)(CC)CCC[n+]1c(-c2ccccc2)c2cc(N)ccc2c2ccc(N)cc21.[I-].[I-]", "note": "[compound 792, Propidium iodide]", "hTLR9 (inhibitory effect)": "12 (compounds for which there was clear down regulation at 5 μg/ml and 50 μg/ml)"},
      {"smiles": "CCCCCCCCCCCC(=O)Nc1c2c(nc3ccccc13)N(C)CC2", "note": "[compound 1334]", "hTLR9 (inhibitory effect)": "11 (compounds for which there was clear down regulation only at 50 μg/ml)"},
      {"smiles": "Cc1ccc(-n2c(NCCO)nc3c(c2=O)C2(CCCCC2)Cc2ccccc2-3)cc1", "note": "[compound 1137]", "hTLR9 (inhibitory effect)": "11 (compounds for which there was clear down regulation only at 50 μg/ml)"},
      {"smiles": "COc1cc2cc3c4cc(OC)c(OC)cc4cc[n+]3c(C)c2cc1OC", "note": "[compound 431, Coralyne chloridehydrate]", "hTLR9 (inhibitory effect)": "13 (compounds for which there was clear down regulation at 0.5 μg/ml, 5 μg/ml, and 50 μg/ml)"},
      {"smiles": "CN1CCCCc2c1nc1ccccc1c2N", "note": "[compound 1185, 1-Methyl-2,3,4,5-tetrahydro-1H-azepino[2,3-b]quinolin-6-ylamine]", "hTLR9 (inhibitory effect)": "13 (compounds for which there was clear down regulation at 0.5 μg/ml, 5 μg/ml, and 50 μg/ml)"},
      {"smiles": "O=C1c2ccc(S(=O)(=O)c3ccc4c(c3)C(=O)N(c3ccccn3)C4=O)cc2C(=O)N1c1ccccn1", "note": "[compound 1163]", "hTLR9 (inhibitory effect)": "11 (compounds for which there was clear down regulation only at 50 μg/ml)"},
      {"smiles": "Cn1c(NN)nc2c(c1=O)C1(CCCC1)Cc1ccccc1-2", "note": "[compound 1213]", "hTLR9 (inhibitory effect)": "— (compounds for which there was no clear down regulation even at 50 μg/ml)"},
      {"smiles": "CN1CCc2c1nc1ccccc1c2NC(=O)CN1CCCCCC1", "note": "[compound 1003]", "hTLR9 (inhibitory effect)": "13 (compounds for which there was clear down regulation at 0.5 μg/ml, 5 μg/ml, and 50 μg/ml)"},
      {"smiles": "CN1CCc2c1nc1ccc(Br)cc1c2N", "note": "[compound 1142, 6-Bromo-1-methyl-2,3-dihydro-1H-pyrrolo[2,3-b]quinolin-4-ylamine]", "hTLR9 (inhibitory effect)": "13 (compounds for which there was clear down regulation at 0.5 μg/ml, 5 μg/ml, and 50 μg/ml)"},
      {"smiles": "Nc1c2c(nc3ccccc13)N(Cc1ccccc1)CC2", "note": "[compound 1217, 1-Benzyl-2,3-dihydro-1H-pyrrolo[2,3-b]quinolin-4-ylamine]", "hTLR9 (inhibitory effect)": "13 (compounds for which there was clear down regulation at 0.5 μg/ml, 5 μg/ml, and 50 μg/ml)"},
      {"smiles": "O=c1[nH]c(NCCO)nc2c1C1(CCCC1)Cc1ccccc1-2", "note": "[compound 1322]", "hTLR9 (inhibitory effect)": "— (compounds for which there was no clear down regulation even at 50 μg/ml)"},
      {"smiles": "COc1ccc(Cc2nccc3cc(OC)c(OC)cc23)cc1OC.Cl", "note": "[compound 583, Papaverinehydrochloride]", "hTLR9 (inhibitory effect)": "12 (compounds for which there was clear down regulation at 5 μg/ml and 50 μg/ml)"},
      {"smiles": "NNc1nc2c(c(=O)n1-c1ccccc1)C1(CCCC1)Cc1ccccc1-2", "note": "[compound 1320]", "hTLR9 (inhibitory effect)": "13 (compounds for which there was clear down regulation at 0.5 μg/ml, 5 μg/ml, and 50 μg/ml)"},
      {"smiles": "O=c1c2c(nc(NCCO)n1Cc1ccccc1)-c1ccccc1CC21CCCC1", "note": "[compound 926]", "hTLR9 (inhibitory effect)": "11 (compounds for which there was clear down regulation only at 50 μg/ml)"},
      {"smiles": "CCOc1ccc(Cc2nccc3cc(OCC)c(OCC)cc23)cc1OCC.Cl", "note": "[compound 830, Ethaverinehydrochloride]", "hTLR9 (inhibitory effect)": "11 (compounds for which there was clear down regulation only at 50 μg/ml)"},
      {"smiles": "CCCCCCN(CCCCCC)CC(=O)Nc1c2c(nc3ccccc13)N(C)CC2", "note": "[compound 1224]", "hTLR9 (inhibitory effect)": "11 (compounds for which there was clear down regulation only at 50 μg/ml)"},
      {"smiles": "Cc1ccc2nc3c(c(N)c2c1)CCN3C", "note": "[compound 1091, 1,6-Dimethyl-2,3-dihydro-1H-pyrrolo[2,3-b]quinolin-4-ylamine]", "hTLR9 (inhibitory effect)": "13 (compounds for which there was clear down regulation at 0.5 μg/ml, 5 μg/ml, and 50 μg/ml)"},
      {"smiles": "O=c1c2c(nc(NCCO)n1-c1ccccc1)-c1ccccc1CC21CCCC1", "note": "[compound 891]", "hTLR9 (inhibitory effect)": "11 (compounds for which there was clear down regulation only at 50 μg/ml)"},
      {"smiles": "O=C(CN1CCCC1)Nc1c2c(nc3ccccc13)N(c1ccccc1)CC2", "note": "[compound 1244]", "hTLR9 (inhibitory effect)": "12 (compounds for which there was clear down regulation at 5 μg/ml and 50 μg/ml)"},
      {"smiles": "CN1CCc2c1nc1ccccc1c2NC(=O)CN1CCN(c2ccccc2)CC1", "note": "[compound 1212]", "hTLR9 (inhibitory effect)": "12 (compounds for which there was clear down regulation at 5 μg/ml and 50 μg/ml)"},
      {"smiles": "NNc1nc2c(c(=O)n1C1CCCC1)C1(CCCC1)Cc1ccccc1-2", "note": "[compound 1248]", "hTLR9 (inhibitory effect)": "— (compounds for which there was no clear down regulation even at 50 μg/ml)"},
      {"smiles": "COc1ccc2cc3[n+](cc2c1OC)CCc1cc2c(cc1-3)OCO2.[Cl-]", "note": "[compound 586, Berberine chloride]", "hTLR9 (inhibitory effect)": "— (compounds for which there was no clear down regulation even at 50 μg/ml)"},
      {"smiles": "O=C1c2ccc(Oc3ccc(S(=O)(=O)c4ccc(Oc5ccc6c(c5)C(=O)N(c5ccccn5)C6=O)cc4)cc3)cc2C(=O)N1c1ccccn1", "note": "[compound 1367]", "hTLR9 (inhibitory effect)": "— (compounds for which there was no clear down regulation even at 50 μg/ml)"},
      {"smiles": "CN1CCc2c1nc1ccccc1c2N", "note": "[compound 990, 1-Methyl-2,3-dihydro-1H-pyrrolo[2,3-b]quinolin-4-ylamine]", "hTLR9 (inhibitory effect)": "13 (compounds for which there was clear down regulation at 0.5 μg/ml, 5 μg/ml, and 50 μg/ml)"},
      {"smiles": "CN(C)CCN(Cc1ccc(Cl)cc1)c1ccccn1.Cl", "note": "[compound 807, Chloro-pyraminehydrochloride]", "hTLR9 (inhibitory effect)": "12 (compounds for which there was clear down regulation at 5 μg/ml and 50 μg/ml)"}
    ]}
  ]
}
